Source: US6075018A, “1-[2-(substituted vinyl)]-3,4-dihydro-4-dihydro-5H-2,3-benzodiazepine derivatives” (priority 1995, dated 2000)

Assays:
[1] = test system: hippocampal CA1 field potentials (glutamate acting mainly through AMPA receptors); settings: known AMPA antagonist; cited from earlier work
[2] = test system: hippocampal CA1 field potentials (glutamate acting mainly through AMPA receptors); assay: Inhibition of CA1 field potentials in hippocampal slices (glutamatergic transmission), method of Tarnawa et al.; design: species or system rat
Experimental: The effects of the compounds on the glutamatergic transmission were studied in hippocampal slices applying the method of Tarnawa et al. (Acta Physiol. Hung., 79, 163, 1992). 400 μm thick slices were prepared from rat brain and maintained in a chamber of interface type under simulated […] conditions. The Schaffer collaterals were stimulated and field potentials were recorded from the pyramidal cells of the hippocampal CA1 region. The neurotransmitter involved in this process is glutamate acting mainly through AMPA receptors.

[3] = background statement; cited from earlier work

CC1=NN=C(c2ccc(N)cc2)c2cc3c(cc2C1)OCO3 [GYKI-52466, 1-(4-aminophenyl)-4-methyl-7,8-methylenedioxy-5H-2,3-benzodiazepine, reference compound]
inhibition of the CA1 field potentials (in words) [1]: concentration-dependently inhibits the CA1 field potentials
Inhibition (%) 30 minutes after drug administration ([2]; 50 μM, 30 minutes after drug administration): 94.5 ± 2.07%
Inhibition (%) 60 minutes after drug administration ([2]; 50 μM, 60 minutes after drug administration): 100 ± 0%
Inhibition (%) after 30 minutes wash-out ([2]; 50 μM, after 30 minutes wash-out, *p < 0.05 compared to the 60 minutes value): 84.6 ± 7.37%
effect of 30 minutes wash-out on the inhibition ([2]; wash-out lasting 30 minutes vs preceding 60 minutes incubation): significantly smaller than that observed after the preceding incubation period
duration of action (in words) [3]: rather short
known pharmacological activity (in words) [3]: non-NMDA-glutamic acid antagonist having spasmolytic and antiischemic activities
